Source: US20220267352A1, “RAPAMYCIN ANALOGS AND USES THEREOF” (Anakuria Therapeutics, Inc., priority 2021, published 2022)

Tests used:
Format in all cases: cell-based
[1] = system: p-Akt 1/2/3 (Ser473) in MCF-7 cells; experiment: AlphaLISA Ultra pAKT assay; settings: Homo sapiens, 1.5 h; MCF7 cells, 90 min
Procedure: Example 56: AlphaLISA Ultra pAKT Assay
Assay Protocol: • 1. MCF-7 cells in Corning 3701 plate and incubate for 20˜24 hour. 16,000˜20,000 cells will be seeded in 36 μL medium per well. • 2. Change the culture medium with fresh medium and incubate for another 90 minutes. • 3. Add 12 μL (4×) compounds into the cell plate by HAMILTON. Final DMSO concentration is 0.5%. […] Aspirate 38 μL by HAMILTON, 10 μL rest per well. • 5. Add 10 μL 2× lysis buffer using HAMILTON; total volume in wells is 20 μL. Allow cells to shake for 30 min. Cover plate by plastic foil and store plate at −80° C. up to analysis. • 6. Thaw cell lysate at RT and transfer 10 μL lysate to assay plate (Optiplate-384). • 7. Add 5 μL acceptor beads into assay plate and incubation for 2 hours • 8. Add 5 μL donor beads and incubation for 2 hours • 9. Count the plate by EnSpire Multimode Plate Reader

[2] = system: p-p70 S6 Kinase (Thr389) in MCF-7 cells; experiment: AlphaLISA Ultra pS6K1 assay; settings: Homo sapiens, 1.5 h; MCF7 cells, 90 min
Procedure: Example 55: AlphaLISA Ultra pS6K1 Assay
(§1) Assay Protocol: • 1. Seed MCF-7 cells in Corning 3701 plate and incubate for 20˜24 hour. 12,000˜16,000 cells will be seeded in 36 μL medium per well. • 2. Change the culture medium with fresh medium and incubate for another 2 hours. • 3. Add 12 μL (4×) compounds into the cell plate by HAMILTON. Final DMSO concentration is 0.5%. Incubate for 90 minutes. • 4. Aspirate 38 μL by HAMILTON, 10 μL rest per well. • 5. Add 10 μL 2× lysis buffer using HAMILTON; total volume in wells is 20 μL. Allow cells to shake for 30 min. Cover plate by plastic foil and store plate at −80° C. up to analysis. • 6. Thaw cell lysate at RT and transfer 10 μL lysate to assay plate (Optiplate-384). • 7. Add 5 μL acceptor beads into assay plate and incubation for 2 hours • 8. Add 5 μL donor beads and incubation for 2 hours • 9. Count the plate by EnSpire Multimode Plate Reader

mTORC1 over mTORC2 = mTORC1 over mTORC2 selectivity by comparing pS6K1 and pAKT IC50; settings: by comparing pS6K1 and pAKT IC50, 90 min
Procedure: as §1, with “Reader […]” for “Reader”
Compounds that are not selective by comparing pS6K1 and pAKT IC50 by kinase assays are indicated by “NO” in the “mTORC1 selective @ 90 min” column of Table 4. […] Compounds that are not selective at the 24 hrs mark are indicated by “NO” in the “mTORC1 selective @ 24 hrs” column of Table 4. “N/A” stands for “not assayed” and “N/C” stands for “not calculated”.

Structure (SMILES) | IC50 [1] | IC50 [2] | mTORC1 selective @ 90 min (mTORC1 over mTORC2)
COCCOCCO[C@@H]1C[C@@H]2CC[C@@H](C)[C@@](O)(O2)C(=O)C(=O)N2CCCC[C@H]2C(=O)O[C@H]([C@H](C)C[C@@H]2CC[C@@H](OC(F)F)[C@H](OC)C2)CC(=O)[C@H](C)/C=C(\C)[C@@H](O)[C@@H](OC)C(=O)[C@H](C)C[C@H](C)/C=C/C=C/C=C/1C [I-5, (22E,24E,26E,27E,33R,34S,35R,36R,38S,40S,42R,43S,44R,45R,55R)-43-[(1R)-2-[(1S,3R,4R)-4-(difluoromethoxy)-3-methoxy-cyclohexyl]-1-methyl-ethyl]-44,55-dihydroxy-45-methoxy-42-[2-(2-methoxyethoxy)ethoxy]-33,34,35,36,46,47-hexamethyl-64,65-dioxa-56-azatricyclohexatriaconta-22,24,26(46),27(47)-tetraene-48,49,50,51,52-pentone] | ≥ 1000 nM | 10 to 100 nM | Yes
CO[C@@H]1C[C@H](C[C@@H](C)[C@@H]2CC(=O)[C@H](C)/C=C(\C)[C@@H](O)[C@@H](OC)C(=O)[C@H](C)C[C@H](C)/C=C/C=C/C=C(\C)C(OCC3COCCO3)C[C@@H]3CC[C@@H](C)[C@@](O)(O3)C(=O)C(=O)N3CCCC[C@H]3C(=O)O2)CC[C@H]1OC(F)F (stereo partly drawn) [I-6, (24E,26E,28E,29E,32R,33S,34R,35R,37S,39S,42S,44R,45R,55R)-42-[(1R)-2-[(1S,3R,4R)-4-(difluoromethoxy)-3-methoxy-cyclohexyl]-1-methyl-ethyl]-41-(1,4-dioxan-2-ylmethoxy)-44,55-dihydroxy-45-methoxy-32,33,34,35,46,47-hexamethyl-66,67-dioxa-56-azatricyclohexatriaconta-24,26,28(46),29(47)-tetraene-48,49,50,51,52-pentone] | ≥ 1000 nM | 10 to 100 nM | Yes
COCCOCCOC1C[C@@H]2CC[C@@H](C)[C@@](O)(O2)C(=O)C(=O)N2CCCC[C@H]2C(=O)O[C@H]([C@H](C)C[C@@H]2CCC(OC3COC3)[C@H](OC)C2)CC(=O)[C@H](C)/C=C(\C)[C@@H](O)[C@@H](OC)C(=O)[C@H](C)C[C@H](C)/C=C/C=C/C=C/1C (stereo partly drawn) [I-7, (24E,26E,28E,29E,35R,36S,37R,38R,40S,42S,45S,47R,48R,57R)-47,57-dihydroxy-48-methoxy-44-[2-(2-methoxyethoxy)ethoxy]-45-[(1R)-2-[(1S,3R)-3-methoxy-4-(oxetan-3-yloxy)cyclohexyl]-1-methyl-ethyl]-35,36,37,38,49,50-hexamethyl-67,68-dioxa-58-azatricyclohexatriaconta-24,26,28(49),29(50)-tetraene-51,52,53,54,55-pentone] | ≥ 1000 nM | 1 to 10 nM | Yes
CO[C@@H]1/C(C)=C/[C@@H](C)C(=O)C[C@@H]([C@H](C)C[C@@H]2CC[C@@H](OC(F)F)[C@H](OC)C2)OC(=O)[C@@H]2CCCCN2C(=O)C(=O)[C@]2(O)O[C@@H](CC[C@H]2C)CC(OCC2COCCO2)/C(C)=C/C=C/C=C/[C@@H](C)C[C@@H](C)C(=O)[C@@H]1OC (stereo partly drawn) [I-8, (25E,27E,29E,30E,33R,34S,35R,36R,38S,40S,43S,45R,46R,56R)-43-[(1R)-2-[(1S,3R,4R)-4-(difluoromethoxy)-3-methoxy-cyclohexyl]-1-methyl-ethyl]-42-(1,4-dioxan-2-ylmethoxy)-56-hydroxy-45,46-dimethoxy-33,34,35,36,47,48-hexamethyl-66,67-dioxa-57-azatricyclohexatriaconta-25,27,29(47),30(48)-tetraene-49,50,51,52,53-pentone] | ≥ 1000 nM | 10 to 100 nM | Yes
CO[C@@H]1C[C@H](C[C@@H](C)[C@@H]2CC(=O)[C@H](C)/C=C(\C)[C@@H](O)[C@@H](OC)C(=O)[C@H](C)C[C@H](C)/C=C/C=C/C=C(\C)[C@H](OCC3COCCO3)C[C@@H]3CC[C@@H](C)[C@@](O)(O3)C(=O)C(=O)N3CCCC[C@H]3C(=O)O2)CC[C@H]1OC(F)F (stereo partly drawn) [I-10, (24E,26E,28E,29E,32R,33S,34R,35R,37S,39S,41R,42S,44R,45R,55R)-42-[(1R)-2-[(1S,3R,4R)-4-(difluoromethoxy)-3-methoxy-cyclohexyl]-1-methyl-ethyl]-41-(1,4-dioxan-2-ylmethoxy)-44,55-dihydroxy-45-methoxy-32,33,34,35,46,47-hexamethyl-66,67-dioxa-56-azatricyclohexatriaconta-24,26,28(46),29(47)-tetraene-48,49,50,51,52-pentone] | ≥ 1000 nM | 10 to 100 nM | Yes
CO[C@@H]1/C(C)=C/[C@@H](C)C(=O)C[C@@H]([C@H](C)C[C@@H]2CC[C@@H](O)[C@H](OC)C2)OC(=O)[C@@H]2CCCCN2C(=O)C(=O)[C@]2(O)O[C@@H](CC[C@H]2C)CC(OCCOC2COC2)/C(C)=C/C=C/C=C/[C@@H](C)C[C@@H](C)C(=O)[C@@H]1OC (stereo partly drawn) [I-11, (3S,6R,7E,9R,10R,12R,14S,15E,17E,19E,23S,26R,27R,34aS)-27-hydroxy-3-((R)-1-((1S,3R,4R)-4-hydroxy-3-methoxycyclohexyl)propan-2-yl)-9,10-dimethoxy-6,8,12,14,20,26-hexamethyl-21-(2-(oxetan-3-yloxy)ethoxy)-9,10,12,13,14,21,22,23,24,25,26,27,32,33,34,34a-hexadecahydro-3H-23,27-epoxypyrido[2,1-c][1]oxa[4]azacyclohentriacontine-1,5,11,28,29(4H,6H,31H)-pentaone] | ≥ 1000 nM | 10 to 100 nM | Yes
CO[C@@H]1C[C@H](C[C@@H](C)[C@@H]2CC(=O)[C@H](C)/C=C(\C)[C@@H](O)[C@@H](OC)C(=O)[C@H](C)C[C@H](C)/C=C/C=C/C=C(\C)C(OCC3COCCO3)C[C@@H]3CC[C@@H](C)[C@@](O)(O3)C(=O)C(=O)N3CCCC[C@H]3C(=O)O2)CC[C@H]1OCCCN1CCOCC1 (stereo partly drawn) [I-12, (28E,30E,32E,33E,39R,40S,41R,42R,44S,46S,49S,51R,52R,61R)-48-(1,4-dioxan-2-ylmethoxy)-51,61-dihydroxy-52-methoxy-49-[(1R)-2-[(1S,3R,4R)-3-methoxy-4-(3-morpholinopropoxy)cyclohexyl]-1-methyl-ethyl]-39,40,41,42,53,54-hexamethyl-74,75-dioxa-63-azatricyclohexatriaconta-28,30,32(53),33(54)-tetraene-55,56,57,58,59-pentone] | ≥ 1000 nM | < 1 nM | Yes
CO[C@@H]1C[C@H](C[C@@H](C)[C@@H]2CC(=O)[C@H](C)/C=C(\C)[C@@H](O)[C@@H](OC)C(=O)[C@H](C)C[C@H](C)/C=C/C=C/C=C(\C)[C@H](OCCOC3COC3)C[C@@H]3CC[C@@H](C)[C@@](O)(O3)C(=O)C(=O)N3CCCC[C@H]3C(=O)O2)CC[C@H]1OCCCN1CCOCC1 [I-13, (27E,29E,31E,32E,39R,40S,41R,42R,44S,46S,48R,49S,51R,52R,61R)-51,61-dihydroxy-52-methoxy-49-[(1R)-2-[(1S,3R,4R)-3-methoxy-4-(3-morpholinopropoxy)cyclohexyl]-1-methyl-ethyl]-39,40,41,42,53,54-hexamethyl-48-[2-(oxetan-3-yloxy)ethoxy]-73,74-dioxa-63-azatricyclohexatriaconta-27,29,31(53),32(54)-tetraene-55,56,57,58,59-pentone] | ≥ 1000 nM | 1 to 10 nM | Yes
